Assays:
Format in all cases: cell-based, human
[1] = test system: HeLa cells; test: Drug sensitivity test: cell viability (Presto Blue) of HeLa cells with siRNA-reduced homologous recombination activity; settings: 96 hours of culture
Experimental: (§1) HeLa cell suspension adjusted to 5000 cells/ml was seeded in a 96 well plate at 100 ul/well, and the next day, siRNA was introduced, followed by addition of Olaparib or Nicaraven. One hundred twenty hours after gene introduction and Olaparib addition, HeLa cells were replaced in a medium to which Presto Blue assay (Thermo-Fisher Scientific, Waltham, MA, USA) had been added so as to have a final concentration of 5%, followed by reaction in the presence of 5% CO2 at 37°C for 1 hour, and then fluorescence was measured under conditions of an excitation wavelength of 520 nm and a fluorescence wavelength of 580 to 640 nm using GloMax (registered trademark) Explorer Multimode Microplate Reader (Promega, Madison, WI, USA).
After 96 hours of culture, cell viability was measured.
Figs. 1B and 1C show the measurement results of cell viability.

[2] = test system: homologous recombination activity; test: Assay for site-specific homologous recombination activity (ASHRA); settings: HeLa cells, siRNA of control, BRCA1 or RAD51; 48 hours of culture with drug
Experimental: HeLa cells were seeded on a 3.5 cm dish, and the next day, siRNA was introduced. After 24 hours of culture from the introduction of siRNA, LentiCRISPRv2-ACTB-C1 and pBS-ACTB-200 GFPfr1 (vector for ASHRA measurement) were introduced, and Nicaraven was added at the same time. After further culturing for 48 hours, genomic DNA was purified using Blood Genomic DNA Extraction Mini Kit (Favorgen, Ping-tung, Taiwan). Genome quantitative PCR was performed using Go Taq qPCR master mix (Promega, Madison, WI, USA), measurement was done using CFX96 Touch Real-time PCR detection system (BioRad, Hercules, CA, USA), and knock-in efficiency was calculated by ΔΔCt method. Sequences of a primer for detecting a knock-in allele and a primer for detecting a reference allele are shown below. • For knock-in allyl detection • Forward […] • Reverse […] • For reference allyl detection • Forward […] • Reverse […] • Reference paper: NPL 2.
After 24 hours, a vector for measurement of homologous recombination activity was introduced, and Nicaraven was added. After 48 hours of culture, DNA was collected and homologous recombination activity was measured.
The homologous recombination ability was analyzed by Assay for site-specific homologous recombination activity (ASHRA) (Yoshino et al. Scientific Reports 2019, method shown in Fig. 5).

[3] = test system: γ-H2AX; test: γ-H2AX intranuclear foci immunostaining after ionizing radiation (DNA repair process); settings: drug 30 minutes before 1.5 Gy of X-ray, 24 hours after irradiation
Experimental: After cell seeding, Nicaraven was added. After 30 minutes, the cells were irradiated with 1.5 Gy of X-ray, and after 2 hours and 24 hours, the cells were fixed and immunostained with an anti-γ-H2AX antibody.
Cells in which five or more γ-H2AX intranuclear foci were observed were counted, and the ratio was calculated and represented in a graph. Respective cells in which less than 5, 5 or more and less than 10, 10 or more and less than 20, and 20 or more γ-H2AX intranuclear foci were observed were counted, and the ratio was calculated and represented in a graph (Fig. 3D).
After IR, more γ-H2AX intranuclear foci are observed in multiple cells in 2 hours. After 24 hours, DNA double strand break is repaired, reducing the number of cells having intranuclear foci and the number of intranuclear foci per cell. Suppression of expression of RAD51 suppressed DNA damage repair. […] It is considered that more DNA damage was formed due to PARP inhibitory action. The measurement of nuclear focus of γ-H2AX 24 hours after X-ray irradiation in this example is a result in a cell having a fast cell cycle.

[4] = test system: γ-H2AX; test: Western blot of γ-H2AX after ionizing radiation; settings: HeLa cells, drug 30 minutes before 10 Gy of X-ray, collected two hours later
Experimental: The culture medium for the cells seeded on a 3.5 cm dish was removed, followed by washing with 1x PBS and then direct dissolution in a 1x Sodium dodecyl sulfate (SDS) sample buffer (2% SDS, 1% 2-Mercaptoethanol [2-ME], 50 mM Tris-HCL [pH 6.8], 12% glycerol, 1% Bromophenol blue [BPB]). Thereafter, the solution was subjected to ultrasonic treatment with Vibra cell (Sonics & Materials Inc., CT, USA) and heated at 95°C for 5 minutes to prepare a whole cell extract. For Western blotting, electrophoresis was performed through a 6%, 10% SDS polyacrylamide gel, and […] was done to a PVDF membrane (Millipore Corporation Darmstadt, Germany) for 1.5 h, followed by blocking with 5% skim milk-PBS for 3 to 16 h. After blocking, a primary antibody diluted with a 0.5% BSA/TBS-T or Can get signal solution (TOYOBO, Osaka, Japan) was allowed to react overnight at 4°C. After washing 3 times with PBS-T for 10 minutes, a secondary antibody diluted with 0.5% BSA/TBS-T was allowed to react at room temperature for 1 to 3 hours. […]
The day after HeLa cells were seeded, Nicaraven was added, and 30 minutes later, the cells were irradiated with 10 Gy of X-ray. […] Cell extracts were adjusted and analyzed with Western Blot. […]

[5] = test system: KYSE270 cells; test: Cell viability of KYSE270 cells with siRNA-reduced homologous recombination activity; settings: KYSE270 cells with expression of RAD51 suppressed by siRNA, compared with control; 5 days of culture
Experimental: (§2) KYSE270 cells and KYSE30 cells (human esophageal squamous cell carcinoma cell line) were purchased from JCRB Cell Bank, National Institutes of Biomedical Innovation, Health and Nutrition (Osaka, Japan). KYSE270 cells and KYSE30 cells were cultured in a medium in which RPMI1640 and Ham's F12 medium (both of which were manufactured by FUJIFILM Wako Pure Chemical Corporation, Osaka, Japan) were mixed in equal amounts and 5% FBS was added at 37°C in the presence of 5% CO2.
as §1
Fig. 6A. […] After 5 days of culture, cell viability was measured. […]

[6] = test system: KYSE30 cells; test: Cell viability of KYSE30 cells with siRNA-reduced homologous recombination activity; settings: KYSE30 cells with expression of RAD51 suppressed by siRNA, compared with control
Experimental: as §2, §1
Fig. 7. […]

[7] = HeLa cells with expression of BRCA1 and RAD51 suppressed by siRNA, compared with control siRNA

SMILES	cell viability [1, 7]	cell viability ([1]; HeLa cells, drug added 24 hours after siRNA)	homologous recombination activity [2]	γ-H2AX intranuclear foci (DNA damage remaining) ([3]; HeLa cells with expression of RAD51 suppressed, compared with control)	γ-H2AX intranuclear foci (DNA damage remaining) ([3]; HeLa cells, control and RAD51 siRNA)	amount of γ-H2AX [4]	cell viability [5]	cell viability [6]
CC(CNC(=O)c1cccnc1)NC(=O)c1cccnc1 (stereo not shown) [Nicaraven]	cell viability further decreased	decreased cell viability in a concentration-dependent manner	did not affect the homologous recombination ability	DNA damage remained more remarkably	caused DNA damage to remain	reduced	cell viability further decreased	cell viability decreased
O=C(c1cc(Cc2n[nH]c(=O)c3ccccc23)ccc1F)N1CCN(C(=O)C2CC2)CC1 [Olaparib]	decreased cell viability	–	–	–	–	–	decreased cell viability	–
